The text below walks through data of article PMC9822352, “Design, Synthesis and Evaluation of New Multifunctional Benzothiazoles as Photoprotective, Antioxidant and Antiproliferative Agents” (Molecules, 2022).

Series [1] can be described thus: DPPH radical scavenging test. The conditions noted are these: mean ± SEM; for DPPH (% Inhibition): compound at 1 mg/mL, 30 min, 517 nm. How it is done: The DPPH assay is widely used, and the simplest and fastest in vitro method for evaluating the antioxidant power of extracts or isolated compounds; it is based on the depletion of the 2,2-diphenyl-1-picrylhydrazyl radical (DPPH˙) by an antioxidant molecule with scavenger activity. This is an extremely sensitive test that can detect the activity of active ingredients present in very low concentrations.
The procedure used was adapted from Wang et al.. Briefly, 0.750 mL of a methanolic solution of each tested compound was treated with 1.5 mL of DPPH solution (0.004%) in MeOH. Samples were stored in the dark at room temperature for 30 min, and the absorbance value was read with a spectrophotometer at 517 nm, which is the maximum peak of absorbance relative to the DPPH radical absorption spectra. The values obtained were fitted into Equation (1) and converted to inhibition percentage (%) of the radical:DPPH inhibition percentage (%) = 100 × [1 − A1/A0](1) where A1 and A0 were, respectively, the absorbance recorded with and without the sample, which are directly proportional to DPPH residual concentration in the sample and DPPH concentration in the control (0.750 of MeOH and 1.5 mL of DPPH solution). […] A linear regression was performed to calculate the sample concentration able to eliminate 50% of DPPH free radicals.
(In general: The DPPH test is a chemical assay of radical scavenging.)

Series [2] is described as follows: FRAP (Ferric Reducing Antioxidant Power) assay. The conditions noted are these: Trolox standard, 37 °C 10 min, 593 nm; mean ± SEM. The text has this: The FRAP (Ferric Reducing Antioxidant Power) test allows the measurement of the ability of antioxidants to reduce ferric ion to ferrous. This method represents one of the simplest, quickest and least expensive methods for the determination of reducing properties on oxidized species in vitro.
The FRAP test (Ferric Reducing Antioxidant Power) is based on a colorimetric reaction and evaluates the ability of a sample of reducing ferric ions to ferrous ion while complexed with TPTZ (2,4,6-trispyridil-s-triazine). The FRAP solution was prepared from 0.1 M acetate buffer (pH 3.6), 10 mmol/L of TPTZ in 40 mM HCl, and 20 mM solution of FeCl3, with a 10:1:1 ratio, as described. Then, 1.9 mL of this solution was incubated with 0.1 mL of the sample solution at 37 °C for 10 min. The absorbance was read with a UV-Vis spectrophotometer at a 593 nm wavelength, relative to the maximum peak of absorbance of Fe^2+-TPTZ complex. Trolox® was used as a standard and the results are expressed as µmolTE/g.

Series [3] is described as follows: UV spectra in solution (MeOH-DMSO): λmax and molar extinction coefficient. It is filed as physicochemical. The conditions noted are these: for ε (molar extinction coefficient): at λmax, Lambert-Beer equation, in M-1 cm-1 (unit assumed); for λmax: solution in MeOH-DMSO, 290–400 nm. How it is done:
We next investigated the protective potential against UV radiation of each compound. Specifically, in vitro tests were conducted to determine the parameters related to absorption in the UV spectrum and those fundamental to the relative evaluation of the filtering potential and thus candidature as possible UV sunscreen ingredients of the candidates under examination, including λ critical and SPF (sun protection factor). Since the SPF is correlated to the UV quantitative absorption of the substances, the wavelength of maximum absorption (λmax) and the molar extinction coefficient (ε) of the derivatives in solution (MeOH-DMSO) were evaluated (Figures S1 and S2, Supplementary Materials). The UV spectra of the compounds BZTidr1–6 and BZTcin1–5 were recorded in the UVA-UVB range (290–400 nm) to evaluate their profile and compare it to that of the PBSA, a commercial UVB filter that has a λmax of 302 nm. After this peak, the absorbance of PBSA drops, reaching almost zero in the 325 nm range, and thus not providing absorption in the UVA region.
Once the λmax of each derivative was established, the molar extinction coefficient ε was calculated by applying the Lambert-Beer equation (Table S1, Supplementary Materials): the higher this value, the greater the ability of the compound under examination to absorb UV radiation. […] The excellent values of BZTidr1, BZTidr2 and BZTidr3 are ascribed to the aforementioned hyperchromic shift. In regard to the BZTcin1–5 series, the molar extinction coefficients calculated were very high, and the best values were those of BZTcin1, BZTcin2 and BZTcin3, also attributable to the hyperchromic shift of the absorption spectra. For both series, the excellent absorption capacity of ultraviolet radiation can be traced back to the high π-type conjugation that characterizes them.

The nature of series [4]: In vitro filtering parameters of O/W sunscreen formulation containing 3% compound (modified Diffey-Robson, PMMA plates). The conditions noted are these: 3% in formulation, before irradiation. From the text:
All synthesized compounds were formulated at 3% and their photoprotective efficacy, determined by spectrophotometric measurements using the modified Diffey-Robson method, was compared with that of the lead compound PBSA (used at 3% in the same formulation) and using the base without active as a control (Table 2).
The synthesized compounds were incorporated at a concentration of 3% in a typical oil-in-water sunscreen formulation, to evaluate the filtering parameters, and have the following ingredient composition:
INCI (International Nomenclature Cosmetic Ingredients): aqua, glycerin, Euxyl PE 9010, xanthan gum, Tribehenin PEG-20 Esters, cetearyl alcohol, dicaprylyl carbonate, PPG-26-Buteth-26 (and) PEG-40 Hydrogenated Castor Oil (and) water, C12-C15 Alkyl Benzoate, and Sodium hydroxide (sol. 10%).
As previously reported the protocol indicates to spread 32.5 mg of each formulation on 25 cm^2 PMMA plates with the fingers. Each formulation was tested in triplicate, and five measurements were recorded for each dish, following a 15–30 min incubation in the dark at room temperature. UV transmittance data was recorded using a UV-VIS spectrophotometer in the range 290–400 nm. The blank plate, SPF, UVA-PF and critical wavelength were obtained by SPF Calculator software (version 2.1), Shimadzu, Milan, Italy).

Series [5] in a line: Photostability study of 3% formulation (post-irradiation filtering parameters). Particulars: 3% in formulation, post irradiation. From the text:
To outline the efficacy and safety profile of a sunscreen formulation, it is essential to provide data relating to photostability. It is possible to provide photodegradation data by recording, pre- and post-irradiation, the transmittance of PMMA plates with finger-coat formulations subjected to a dose of UVA capable of causing erythema, according to the criteria of Garoli et al.. By means of Equations (2) and (3) it was possible to evaluate the residual percentage of SPF in vitro and of UVA-PF for all the prepared formulations. Of greatest interest are the values obtained for the derivatives BZTcin2 and BZTcin4.
To determine the photostability, the previously reported method was adopted, which consists in preparing each plate as mentioned above and subjecting it to solar irradiation quantified as the minimum dose of UVA equivalent to an effective radiant exposure of erythema. The protocol stipulates that, before and after exposure to sunlight, the transmission of the sun protection layer in the range of 290–400 nm is recorded.
Using Equations (2) and (3) below, the residual percentage of SPF in vitro (% SPFeff.) and UVA-PF (% UVA-PFeff.) have been obtained, which, if greater than or equal to 80, can classify a filter as photostable. %SPFeff. = in vitro SPFafter/in vitro SPFbefore × 100(2) %UVA − PFeff. = UVA − PFafter/UVA − PFbefore × 100(3)

Another series deals with HaCat keratinocytes. The series is described as follows: Cell growth inhibition assay, HaCat. It is filed as cell-based, human. The conditions noted are these: 24 h incubation, cell count. The procedure:
All synthesized compounds were tested in order to evaluate their in vitro antiproliferative activity. The human melanoma Colo-38 cell line was selected as a tumor skin model, while the immortalized human HaCaT keratinocytes were chosen as a control for the evaluation of the cytotoxicity towards non-cancerous cells and of the selectivity towards tumor cell lines. […] The selectivity index (SI) was also calculated and is the ratio between the IC50 of a given compound towards the non-cancerous cell line and the IC50 of the same compound towards the tumor cell line.
Cell growth inhibition assays were carried out using human melanoma Colo-38 cells and skin HaCat keratinocytes cells. Human melanoma Colo-38 cells were kindly provided by Dr. Patrizio Giacomini (Laboratory of Immunology, Regina Elena Institute, Rome, Italy). HaCat cells were kindly provided by Istituto Zooprofilattico Sperimentale della Lombardia e dell’Emilia Romagna, Brescia, Italy. Cell lines were seeded using concentrations of 40,000 cells/mL and 25,000 cells/mL, respectively. Colo-38 cells were maintained in RPMI 1640, supplemented with 10% fetal bovine serum (FBS), penicillin (100 Units mL^−1), and streptomycin (100 µg mL^−1). HaCat cells were maintained in DMEM, supplemented with 10% fetal bovine serum (FBS), penicillin (100 Units mL^−1), streptomycin (100 µg mL^−1) and glutamine (2 mM); the incubation was performed at 37 °C in a 5% CO2 atmosphere. Tested compounds were dissolved in MeOH/DMSO (1:1) to obtain 50 mM stock solutions and diluted before cell treatment in MeOH 100%. The tested compounds were added at serial dilutions to the cell cultures (from 0.1 to 100 µM) and incubated for 24 h further. Cells were then harvested, suspended in physiological solution, and counted with a Z2 Coulter Counter (Coulter Electronics, Hialeah, FL, USA). The cell number/mL and the IC50 values were determined when untreated cells were in the log phase of cell growth. Cells treated with vehicles and untreated cells were placed in each plate.

“And” between values parts separate entries of the source, which are not always exact repeats. Identical values can stand only once.

As to `COc1ccc(/C=N/NC(=O)c2nc3ccccc3s2)cc1O` [BZTidr5, (E)-N′-(3-hydroxy-4-methoxybenzylidene)benzo[d]thiazole-2-carbohydrazide], the “DPPH (% Inhibition)” value in series [1] was determined as 44.00 ± 3.56%. In series [2], this compound yielded an FRAP of 1758.16 ± 60.41 µmolTE/g. In series [3], the “ε (molar extinction coefficient)” value was 23462.08 and the λmax is on record as 342.4 nm. Further, in series [4], the SPF was found to be 1.60, the UVA/UVB was 1.06, the UVAPF0 was 1.58 and the λc is 387 nm. In series [5], this compound returned an SPF of 1.60, a UVA/UVB of 1.06, a UVAPF of 1.56 and a λc of 387 nm.

As to `COc1cc(/C=N/NC(=O)c2nc3ccccc3s2)ccc1O` [BZTidr6, (E)-N′-(3-methoxy-4-hydroxybenzylidene)benzo[d]thiazole-2-carbohydrazide], in series [1], the “DPPH (% Inhibition)” value is given as over 90.00% and the “DPPH IC50” value was 26.22 ± 1.81 µg/mL. The compound further showed an FRAP in series [2] of 3826.51 ± 90.60 µmolTE/g. In series [3], the “ε (molar extinction coefficient)” value is 22071.63 and the λmax is recorded as 344.8 nm. In series [4], this compound gave an SPF of 1.24, a UVA/UVB of 1.06, a UVAPF0 of 1.36 and a λc of 389 nm. In addition, in series [5], the SPF is given as 1.24, the UVA/UVB was 1.06, the UVAPF worked out at 1.36 and the λc amounted to 389 nm.

As for `O=C(C=Cc1ccccc1)Nc1nc2ccccc2s1` [BZTcin1, N-(benzo[d]thiazol-2-yl)cinnamamide], in series [1], the “DPPH (% Inhibition)” value stood at 0.51 ± 0.27%. The compound further displayed an FRAP in series [2] of 98.69 ± 2.06 µmolTE/g. Also, in series [3], the “ε (molar extinction coefficient)” value is on record as 33033.71 and the λmax is on record as 317.0 nm. In series [4], this compound yielded an SPF of 1.74, a UVA/UVB of 0.93, a UVAPF0 of 1.38 and a λc of 370 nm. In series [5], this compound came in with an SPF of 2.33, a UVA/UVB of 0.93, a UVAPF of 1.48 and a λc of 364 nm.

Turning to `COc1ccc(/C=C/C(=O)Nc2nc3ccccc3s2)cc1` [BZTcin3, (E)-N-(benzo[d]thiazol-2-yl)-3-(4-methoxyphenyl)acrylamide], the melting point (commonly the temperature of the solid-liquid transition) was 260 to 262 °C. The “DPPH (% Inhibition)” value in series [1] is reported as 5.77 ± 0.00%. Besides, the FRAP in series [2] is 42.12 ± 1.35 µmolTE/g. For the same compound, in series [3], the “ε (molar extinction coefficient)” value was determined as 36271.07 and the λmax stood at 334.5 nm. In series [4], this compound came in with an SPF of 1.32, a UVA/UVB of 1.07, a UVAPF0 of 1.38 and a λc of 384 nm. In series [5], this compound displayed an SPF of 1.32, a UVA/UVB of 1.07, a UVAPF of 1.36 and a λc of 384 nm.

With `N.N.[Cl][Pt][Cl]` [Cisplatin, reference compound], the IC50 (as a rule, the concentration at which inhibition is half-maximal) in the series with HaCat keratinocytes stood at 2000 ± 400 nM.

In the case of `O=C(O)/C=C/c1ccc(O)c(O)c1` [Caffeic acid, reference compound], in series [1], the “DPPH (% Inhibition)” value came out at 79.95 ± 0.88% and the “DPPH IC50” value is listed as 5.26 ± 0.41 µg/mL. The FRAP in series [2] was 10,160.24 ± 21.48 µmolTE/g.

On to `O=S(=O)(O)c1ccc2nc(-c3ccccc3)[nH]c2c1` [PBSA, 2-phenyl-1-H-benzimidazole-5-sulfonic acid, reference compound], for which the “DPPH (% Inhibition)” value in series [1] was “<LOQ *”. Besides, in series [2], the FRAP result is reported as “<LOQ *”. In series [3], the “ε (molar extinction coefficient)” value is on record as 23881.86; the λmax was 302.0 nm and 302 nm. In addition, in series [4], the SPF turned out to be 1.91, the UVA/UVB worked out at 0.67, the UVAPF0 stood at 1.13 and the λc is given as 357 nm. In series [5], this compound displayed an SPF of 1.98, a UVA/UVB of 0.67, a UVAPF of 1.13 and a λc of 355 nm.
